Molecules are shown by their SMILES. Some results are limits rather than exact numbers.

For one test, the system named is hypoxia-inducible endogenous VEGF expression. As to the kind of experiment: Hypoxia-inducible endogenous VEGF expression ELISA in HeLa cells, dose-response EC50 (Table 3). The test is classed as cell-based, human. As to conditions: HeLa cells, hypoxic conditions (1% O2), 24-48 hours, VEGF in conditioned media; read-out: ELISA EC50. As to the method: The ability of the Compounds to modulate hypoxia-inducible endogenous VEGF expression may be analyzed as follows. VEGF protein levels may be monitored by an ELISA assay (R&D Systems). Briefly, HeLa cells may be cultured for 24-48 hours under hypoxic conditions (1% O2, 5% CO2, balanced with nitrogen) in the presence or absence of a Compound. The conditioned media may then be assayed by ELISA, and the concentration of VEGF calculated from the standard ELISA curve of each assay.
A dose-response analysis may be performed using the ELISA assay and conditions described above. The conditions for the dose-response ELISA are analogous to those described above. A series of, e.g., seven different concentrations may be analyzed. In parallel, a dose-response cytotoxicity assay may be performed using Cell Titer Glo (Promega) under the same conditions as the ELISA to ensure that the inhibition of VEGF expression was not due to the cytotoxicity.
Regarding `O=C(Oc1ccc(F)cc1)N1CCc2c([nH]c3ccc(Cl)cc23)C1c1ccc(OCC(O)Cn2ccnn2)cc1` (stereo not drawn) [Compound 1066], the EC50 (usually the concentration needed to bring the measured effect to its halfway point) is less than 0.008 µM.

The test is the same for the next values; noted with them: Homo sapiens, HeLa, read-out: ELISA EC50 μM.
On to `COCCN(CCOC)CC(O)COc1ccc(C2c3[nH]c4ccc(Cl)cc4c3CCN2C(=O)Oc2ccc(F)cc2)cc1` (stereo not drawn) [Compound 913], for which the EC50 is less than 0.008 µM.
On the same count and under the same terms, as for `O=C(Oc1ccc(Cl)cc1)N1CCc2c([nH]c3ccc(Cl)cc23)C1c1ccc(OCCCCCCN2CCCCC2)cc1` (stereo not drawn) [Compound 787], the figure is less than 0.008 µM.
Still for that read-out and setting: as for `CC1(C)C(=O)NC(=O)N1CCCOc1ccc(C2c3[nH]c4ccc(Cl)cc4c3CCN2C(=O)Oc2ccc(Cl)cc2)cc1` (stereo not drawn) [Compound 1671], the figure is less than 0.008 µM; as for `NCC(O)COc1ccc(C2c3[nH]c4ccc(Cl)cc4c3CCN2C(=O)Oc2ccc(Cl)cc2)cc1` (stereo not drawn) [Compound 846], 0.04 to 0.2 µM; as for `O=C(COc1ccc(C2c3[nH]c4ccc(Cl)cc4c3CCN2C(=O)Oc2ccc(F)cc2)cc1)NCCN1CCOCC1` (stereo not drawn) [Compound 1022], 0.04 to 0.2 µM.
On the same count and under the same terms, as for `O=C(Oc1ccc(Cl)cc1)N1CCc2c([nH]c3ccc(Cl)cc23)C1c1ccc(OCCCN2CCCCC2)cc1` (stereo not drawn) [Compound 433], the figure is less than 0.008 µM; as for `O=C(Oc1ccc(Cl)cc1)N1CCc2c([nH]c3ccc(Cl)cc23)C1c1ccc(OCCCOCCN2CCOCC2)cc1` (stereo not drawn) [Compound 1555], less than 0.008 µM.
Regarding `CN1CCCC(COc2ccc(C3c4[nH]c5ccc(Cl)cc5c4CCN3C(=O)Oc3ccc(Cl)cc3)cc2)C1` (stereo not drawn) [Compound 966], the EC50 fell in the range of 0.008 to 0.04 µM.
Still for that read-out and setting: as for `O=C(Oc1ccc(Cl)cc1)N1CCc2c([nH]c3ccc(Cl)cc23)C1c1ccc(OCCCN2CCN(CCO)CC2)cc1` (stereo not drawn) [Compound 942], the figure is 0.008 to 0.04 µM.
Same read-out and setting: to `O=C(Oc1ccc(Cl)cc1)N1CCc2c([nH]c3ccc(Cl)cc23)C1c1ccc(OCCCN2CC[C@@H](O)C2)cc1` (stereo partly drawn) [Compound 1476] belongs 0.04 to 0.2 µM; to `CN(C)CCN(C)CCCOc1ccc([C@H]2c3[nH]c4ccc(Cl)cc4c3CCN2C(=O)Oc2ccc(Cl)cc2)cc1` [Compound 1611], less than 0.008 µM; to `Cc1ccc(OC(=O)N2CCc3c([nH]c4ccc(Cl)cc34)C2c2ccc(OCCCN(C)C)cc2)cc1` (stereo not drawn) [Compound 502], 0.04 to 0.2 µM.
Still for that read-out and setting: as for `Cc1ccc(OC(=O)N2CCc3c([nH]c4ccc(Cl)cc34)[C@@H]2c2ccc(OCCC(O)CN(CCO)CCO)cc2)cc1` (stereo partly drawn) [Compound 1288], the figure is 0.008 to 0.04 µM.
As to `CC(C)NCCCOc1ccc(C2c3[nH]c4ccc(Cl)cc4c3CCN2C(=O)Oc2ccc(Cl)cc2)cc1` (stereo not drawn) [Compound 953], the EC50 was in the range of 0.008 to 0.04 µM.

Still in this test, the particulars now being: Homo sapiens; HeLa cells, hypoxic conditions (1% O2), 24-48 hours, VEGF in conditioned media; read-out: ELISA EC50.
With `COc1ccc(C2c3[nH]c4ccc(Cl)cc4c3CCN2C(=O)Oc2ccc(Cl)cc2)c(F)c1` (stereo not drawn) [Compound 1269], the EC50 was less than 0.008 µM.
The same measure, in the same setting: as for `O=C(Oc1ccc(Cl)cc1)N1CCc2c([nH]c3ccc(Cl)cc23)[C@@H]1c1ccc(OCCCCl)cc1` [Compound 1128], the figure is less than 0.008 µM.
The same measure, in the same setting: as for `O=C(Nc1ccc(C2c3[nH]c4ccc(Cl)cc4c3CCN2C(=O)Oc2ccc(Cl)cc2)cc1)c1ccco1` (stereo not drawn) [Compound 437], the figure is less than 0.008 µM; as for `O=C(Oc1ccc(Cl)cc1)N1CCc2c([nH]c3ccc(Cl)cc23)C1c1ccc(OCC[C@H](O)CO)cc1` (stereo partly drawn) [Compound 1172], less than 0.008 µM.
On the same count and under the same terms, to `O=C(Oc1ccc([N+](=O)[O-])cc1)N1CCc2c([nH]c3ccc(Cl)cc23)C1c1ccc(OCC(O)CO)cc1` (stereo not drawn) [Compound 632] belongs 0.008 to 0.04 µM; to `Cc1ccc(OC(=O)N2CCc3c([nH]c4ccc(Cl)cc34)[C@@H]2c2ccc(OCCCn3cncn3)cc2)cc1` [Compound 1182], less than 0.008 µM.
For the compound `CC1(C)OC[C@H](CCOc2ccc(C3c4[nH]c5ccc(Cl)cc5c4CCN3C(=O)Oc3ccc(F)cc3)cc2)O1` (stereo partly drawn) [Compound 1169], the EC50 is less than 0.008 µM.
Regarding `O=C(Oc1ccc(Cl)cc1)N1CCc2c([nH]c3ccc(Cl)cc23)C1c1ccc(OCC2CO2)cc1` (stereo not drawn) [Compound 460], the EC50 is 0.008 to 0.04 µM.
On the same count and under the same terms, to `O=C(Oc1ccccc1Cl)N1CCc2c([nH]c3ccc(Cl)cc23)C1c1ccc(F)cc1` (stereo not drawn) [Compound 588] belongs 0.04 to 0.2 µM; to `O=C(Oc1ccc(Cl)cc1)N1CCc2c([nH]c3ccc(Cl)cc23)C1c1ccc(N2CCCC2)cc1` (stereo not drawn) [Compound 984], 0.2 to 1 µM; to `COc1ccc(C2c3[nH]c4ccc(OC)cc4c3CCN2C(=O)Oc2ccc(Cl)cc2)cc1` (stereo not drawn) [Compound 614], 0.2 to 1 µM.
The same measure, in the same setting: as for `COC(=O)c1ccc(C2c3[nH]c4ccc(Cl)cc4c3CCN2C(=O)Oc2ccccc2Cl)cc1` (stereo not drawn) [Compound 590], the figure is 0.008 to 0.04 µM; as for `O=C(Oc1ccc(F)cc1)N1CCc2c([nH]c3ccc(Cl)cc23)C1c1ccc(OCCCCn2cncn2)cc1` (stereo not drawn) [Compound 743], less than 0.008 µM.
The same measure, in the same setting: as for `Cc1ccc(OC(=O)N2CCc3c([nH]c4ccc(Cl)cc34)C2c2ccc(OCC(O)CO)cc2)cc1` (stereo not drawn) [Compound 631], the figure is less than 0.008 µM; as for `O=C(Oc1ccccc1)N1CCc2c([nH]c3ccc(Cl)cc23)C1c1ccc(OCCCn2ccnc2)cc1` (stereo not drawn) [Compound 911], less than 0.008 µM; as for `CS(=O)(=O)NCC(O)COc1ccc(C2c3[nH]c4ccc(Cl)cc4c3CCN2C(=O)Oc2ccc(Cl)cc2)cc1` (stereo not drawn) [Compound 849], 0.008 to 0.04 µM.
In the case of `CC(C)c1ccc(C2c3[nH]c4ccc(Br)cc4c3CCN2C(=O)Oc2ccc(Cl)cc2)cc1` (stereo not drawn) [Compound 354], the EC50 is less than 0.008 µM.
Consider `O=C(Oc1ccc(Cl)cc1)N1CCc2c([nH]c3ccc(Cl)cc23)C1c1ccc(OCCNc2nccs2)cc1` (stereo not drawn) [#841], for which the EC50 is less than 0.008 µM.
Still for that read-out and setting: as for `O=C(Oc1ccc(Cl)cc1)N1CCc2c([nH]c3ccc(Cl)cc23)[C@@H]1c1ccc(OCCC(O)Cn2cncn2)cc1` (stereo partly drawn) [Compound 1282], the figure is less than 0.008 µM.
For `O=C(Oc1ccc(F)cc1)N1CCc2c([nH]c3ccc(Cl)cc23)C1c1cccc(OCCCn2ccnn2)c1` (stereo not drawn) [Compound 1125], the EC50 fell in the range of 0.2 to 1 µM.
Same read-out and setting: as for `O=C(O)c1ccc(C2c3[nH]c4ccc(Cl)cc4c3CCN2C(=O)Oc2ccc(F)cc2)cc1` (stereo not drawn) [Compound 581], the figure is more than 1 µM.
On the same count and under the same terms, to `O=C(Oc1ccccc1)N1CCc2c([nH]c3ccc(Cl)cc23)[C@@H]1c1ccc(OCC[C@H](O)CO)cc1` [Compound 1299] belongs less than 0.008 µM.
Same read-out and setting: to `O=C(Oc1ccc(F)cc1)N1CCc2c([nH]c3ccc(Cl)cc23)C1c1ccc(OCCCn2ccnc2)cc1` (stereo not drawn) [Compound 889] belongs less than 0.008 µM.
On to `COc1ccc(C2c3[nH]c4ccc(Cl)cc4c3CCN2C(=O)Oc2ccc(F)cc2)cc1F` (stereo not drawn) [Compound 1195], for which the EC50 is 0.008 to 0.04 µM.
The same measure, in the same setting: to `O=C(Oc1ccc(Cl)cc1)N1CCc2c([nH]c3ccc(Cl)cc23)[C@@H]1c1ccc(OCCCn2ccnn2)cc1` [Compound 1068] belongs less than 0.008 µM.

Staying with this test, now noted: Homo sapiens; HeLa cells, hypoxic conditions (1% O2), VEGF ELISA of conditioned media; read-out: ELISA EC50.
For the compound `[H]/N=c1\sc(C)cn1CCOc1ccc(C2c3[nH]c4ccc(Cl)cc4c3CCN2C(=O)Oc2ccc(Cl)cc2)cc1` (stereo not drawn) [Compound 1394], the EC50 is less than 0.008 µM.
On the same count and under the same terms, as for `N#CCOc1ccc(C2c3[nH]c4ccc(Cl)cc4c3CCN2C(=O)Oc2ccc(F)cc2)cc1` (stereo not drawn) [Compound 1548], the figure is 0.008 to 0.04 µM; as for `CC(C)C(=O)NCC(O)CCOc1ccc([C@H]2c3[nH]c4ccc(Cl)cc4c3CCN2C(=O)Oc2ccc(Cl)cc2)cc1` (stereo partly drawn) [Compound 1626], less than 0.008 µM.
On the same count and under the same terms, to `O=C(Oc1ccc(F)cc1)N1CCc2c([nH]c3ccc(Cl)cc23)C1c1ccc(OC2CCOCC2)cc1` (stereo not drawn) [Compound 1577] belongs less than 0.008 µM.
On to `O=C(Oc1ccc(Cl)cc1)N1CCc2c([nH]c3ccc(Cl)cc23)C1c1ccc(OC2CCOCC2)cc1` (stereo not drawn) [Compound 1578], for which the EC50 was less than 0.008 µM.
Still for that read-out and setting: to `O=C(Oc1ccc(Cl)cc1)N1CCc2c([nH]c3ccc(Br)cc23)C1c1ccc(OCC[C@H](O)CO)cc1` (stereo partly drawn) [Compound 1349] belongs less than 0.008 µM.
On the same count and under the same terms, as for `CCOC(=O)NCC(O)COc1ccc(C2c3[nH]c4ccc(Cl)cc4c3CCN2C(=O)Oc2ccc(Cl)cc2)cc1` (stereo not drawn) [Compound 1562], the figure is 0.008 to 0.04 µM; as for `CCCOC(=O)NCC(O)CCOc1ccc([C@H]2c3[nH]c4ccc(Cl)cc4c3CCN2C(=O)Oc2ccc(C)cc2)cc1` (stereo partly drawn) [Compound 1644], less than 0.008 µM.
On the same count and under the same terms, to `[H]/N=c1\sc(C)cn1CCOc1ccc([C@H]2c3[nH]c4ccc(Cl)cc4c3CCN2C(=O)Oc2ccc(Cl)cc2)cc1` [Compound 1568] belongs 0.008 to 0.04 µM; to `C[Si](C)(C)CCS(=O)(=O)N1CCC(Oc2ccc([C@H]3c4[nH]c5ccc(Cl)cc5c4CCN3C(=O)Oc3ccc(F)cc3)cc2)CC1` [Compound 1607], less than 0.008 µM.
`N#CCOc1ccc(C2c3[nH]c4ccc(Cl)cc4c3CCN2C(=O)Oc2ccccc2Cl)cc1` (stereo not drawn) [Compound 1546]: the EC50 was in the range of 0.04 to 0.2 µM.
Same read-out and setting: to `CS(=O)(=O)NCC(O)CCOc1ccc([C@H]2c3[nH]c4ccc(Cl)cc4c3CCN2C(=O)Oc2ccc(Cl)cc2)cc1` (stereo partly drawn) [Compound 1667] belongs less than 0.008 µM.
The same measure, in the same setting: as for `C#CCCCOc1ccc([C@H]2c3[nH]c4ccc(Cl)cc4c3CCN2C(=O)Oc2ccc(Cl)cc2)cc1` [Compound 1613], the figure is less than 0.008 µM; as for `N#CCOc1ccc(C2c3[nH]c4ccc(Cl)cc4c3CCN2C(=O)Oc2ccc(Br)cc2)cc1` (stereo not drawn) [Compound 1547], less than 0.008 µM; as for `CCC(CO)(CO)COc1ccc([C@H]2c3[nH]c4ccc(Cl)cc4c3CCN2C(=O)Oc2ccc(F)cc2)cc1` [Compound 1328], less than 0.008 µM.
Turning to `C[Si](C)(C)CCS(=O)(=O)N1CCC(Oc2ccc(C3c4[nH]c5ccc(Cl)cc5c4CCN3C(=O)Oc3ccc(Cl)cc3)cc2)CC1` (stereo not drawn) [Compound 1581], the EC50 was less than 0.008 µM.
Regarding `[H]/N=c1\scnn1CCOc1ccc(C2c3[nH]c4ccc(Cl)cc4c3CCN2C(=O)Oc2ccc(Cl)cc2)cc1` (stereo not drawn) [Compound 1420], the EC50 is less than 0.008 µM.

Source of the values: patent US20120157401A1, “METHODS FOR TREATING NEUROFIBROMATOSIS” (PTC Therapeutics, Inc., priority 2009, published 2012).
